Laboratory results: ChEMBL document CHEMBL1150182, “Lissoclinolide, the first non-nitrogenous metabolite from a Lissoclinum tunicate” (J Nat Prod, 1990)
Active and inactive are the calls of the source. No cut-off for these calls is given here.

Tested on: Escherichia coli
Assay: Antibacterial activity against Escherichia coli
Format: functional, organism-based

SMILES: O=C1O/C(=C\C=C\CO)C=C1/C=C/CO
- Activity: inactive
